pIC50: −log10 of the molar value.
What was measured:
[1] = biological target: T1, human mGlu2 (Homo sapiens, UniProt Q14416); assay: mGlu GIRK cell-based thallium flux assay, human mGlu2; conditions: HEK-293 cells co-expressing human mGlu2 and GIRK, EC80 glutamate, single experiment
T1 construct: expressed in transfected cells; host or cells: HEK-293 stably co-expressing GIRK channels
Protocol: (§1) Human embryonic kidney (HEK-293) cell lines stably co-expressing human or rat mGlu2 and G protein-coupled inwardly rectifying potassium (GIRK) channels, or human mGlu3 and GIRK, were used for in vitro evaluation of compound activity in thallium flux assay using a fluorescent thallium indicator dye.
(§2) The day before the assay, GIRK cells co-expressing human mGlu3, human or rat mGlu2, as described above, were plated in black-walled, clear-bottomed, amine-coated 384-well plates at a density of 15,000 cells/[…]/well in the assay medium (glutamine-depleted basal DMEM supplemented with 10% dialyzed FBS, 20 mM HEPES, 1 mM sodium pyruvate). Cells were incubated at 37° C. in the presence of 5% CO2. The next day, assay buffer (Hanks balanced salt solution, 20 mM HEPES, 4.16 mM sodium bicarbonate, pH 7.2) was prepared to dilute compounds and Thallos AM fluorescent dye solution. The 2× Thallos dye solution (final concentration 0.34 μM to the cells) was prepared by mixing the dye stock (2.97 mM in DMSO) to 1:1 with 10% pluronic acid before adding to the assay buffer. Cells were washed with assay buffer using a microplate washer to remove the medium, resulting in 20 μL of buffer remaining in each well. […] During the cell dye loading incubation period, a 10-point concentration serial dilution of compound was created from a 10 mM DMSO compound stock by performing a 1:3 serial dilution in DMSO using the Bravo liquid handler. The 2× compound plate was generated by transferring 0.24 μL of the diluted compound in each well to a daughter plate using an Echo acoustic liquid handler. This is further diluted in 40 μL assay buffer, resulting in a range from […] to 1.5 nM final concentration in the assay. The agonist plate (5×) was prepared to include EC80 glutamate concentration (a concentration to elicit 80% of a maximally effective glutamate concentration) in thallium buffer (125 mM sodium bicarbonate, 1 mM magnesium sulfate, 1.8 mM calcium sulfate, 5 mM glucose, 10 mM HEPES, pH 7.2, 12.5 mM thallium sulfate).
(§3) After dye-loading, cell plates were washed with assay buffer to remove excess extracellular dye using a microplate washer, resulting in 20 μL of buffer remaining in each well. After a ten-minute equilibration period, cell, compound and agonist plates were loaded into a Hamamatsu μCell kinetic imaging plate reader equipped with liquid handler to monitor fluorescence changes at 480 nm excitation and 540 nm emission settings. Briefly, after collection of baseline fluorescence, 20 μL of compound was added and incubated for two minutes and twenty seconds. This is immediately followed by adding 10 μL of glutamate-thallium buffer to the wells containing compound. The fluorescent signal was monitored an additional 2.5 minutes after the glutamate addition. Multiple reference wells containing no compound received either no glutamate (for a baseline reference), EC80 glutamate, or ECmax glutamate (for normalization to maximum response). […] Each compound concentration series occurred one time in each plate, and replicates from two or three plates were used in each experimental run. Thallium solutions were handled and disposed of according to guidelines from the Vanderbilt University Chemical Safety department.
(§4) Data were normalized using a static ratio function (F/F0) by dividing every fluorescent measurement by the initial fluorescent value for the corresponding well. The increase in signal resulting from the glutamate/thallium addition of the second add was measured by determining the slope from 3 seconds to 13 seconds after the addition. The average of all baseline slopes (no compound, no glutamate) was determined and this value was subtracted from all other slope values. The average of all ECmax slopes was determined and this value was used to normalize the baseline-corrected slopes to a percent max value (% Emax).

[2] = biological target: T2, human mGlu3 (Homo sapiens, UniProt Q14832); assay: mGlu GIRK cell-based thallium flux assay, human mGlu3; conditions: HEK-293 cells co-expressing human mGlu3 and GIRK, EC80 glutamate, single experiment
T2 construct: expressed in transfected cells; host or cells: HEK-293 stably co-expressing GIRK channels
T2 sequence (Q14832 23-879): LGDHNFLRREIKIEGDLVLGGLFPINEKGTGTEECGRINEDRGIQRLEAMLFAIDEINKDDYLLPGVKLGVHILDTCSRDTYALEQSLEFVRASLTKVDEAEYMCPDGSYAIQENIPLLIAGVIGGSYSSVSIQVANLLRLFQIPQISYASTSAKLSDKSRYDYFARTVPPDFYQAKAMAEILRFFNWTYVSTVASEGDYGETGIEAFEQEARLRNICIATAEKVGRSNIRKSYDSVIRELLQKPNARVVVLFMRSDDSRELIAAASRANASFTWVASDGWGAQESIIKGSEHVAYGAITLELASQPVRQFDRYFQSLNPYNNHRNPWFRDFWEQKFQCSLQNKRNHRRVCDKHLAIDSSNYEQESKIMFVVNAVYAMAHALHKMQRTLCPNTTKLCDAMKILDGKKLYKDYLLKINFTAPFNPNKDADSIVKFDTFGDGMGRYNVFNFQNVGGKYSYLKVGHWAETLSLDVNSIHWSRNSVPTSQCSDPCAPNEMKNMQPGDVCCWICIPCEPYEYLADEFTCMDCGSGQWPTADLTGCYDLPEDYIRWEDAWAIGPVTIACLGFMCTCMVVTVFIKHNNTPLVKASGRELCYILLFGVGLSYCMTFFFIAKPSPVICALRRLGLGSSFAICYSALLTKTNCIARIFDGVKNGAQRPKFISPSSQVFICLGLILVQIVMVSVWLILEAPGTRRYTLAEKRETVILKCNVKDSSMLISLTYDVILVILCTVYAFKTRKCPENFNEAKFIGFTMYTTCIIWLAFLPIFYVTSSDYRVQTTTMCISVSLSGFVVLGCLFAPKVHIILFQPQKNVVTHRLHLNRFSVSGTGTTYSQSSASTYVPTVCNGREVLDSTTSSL
Protocol: as §1, §2, §3, §4

[3] = test system: group II mGlu receptors (mGlu2 and mGlu3); conditions: cited from earlier work

T1 sequence (Q14416 19-872): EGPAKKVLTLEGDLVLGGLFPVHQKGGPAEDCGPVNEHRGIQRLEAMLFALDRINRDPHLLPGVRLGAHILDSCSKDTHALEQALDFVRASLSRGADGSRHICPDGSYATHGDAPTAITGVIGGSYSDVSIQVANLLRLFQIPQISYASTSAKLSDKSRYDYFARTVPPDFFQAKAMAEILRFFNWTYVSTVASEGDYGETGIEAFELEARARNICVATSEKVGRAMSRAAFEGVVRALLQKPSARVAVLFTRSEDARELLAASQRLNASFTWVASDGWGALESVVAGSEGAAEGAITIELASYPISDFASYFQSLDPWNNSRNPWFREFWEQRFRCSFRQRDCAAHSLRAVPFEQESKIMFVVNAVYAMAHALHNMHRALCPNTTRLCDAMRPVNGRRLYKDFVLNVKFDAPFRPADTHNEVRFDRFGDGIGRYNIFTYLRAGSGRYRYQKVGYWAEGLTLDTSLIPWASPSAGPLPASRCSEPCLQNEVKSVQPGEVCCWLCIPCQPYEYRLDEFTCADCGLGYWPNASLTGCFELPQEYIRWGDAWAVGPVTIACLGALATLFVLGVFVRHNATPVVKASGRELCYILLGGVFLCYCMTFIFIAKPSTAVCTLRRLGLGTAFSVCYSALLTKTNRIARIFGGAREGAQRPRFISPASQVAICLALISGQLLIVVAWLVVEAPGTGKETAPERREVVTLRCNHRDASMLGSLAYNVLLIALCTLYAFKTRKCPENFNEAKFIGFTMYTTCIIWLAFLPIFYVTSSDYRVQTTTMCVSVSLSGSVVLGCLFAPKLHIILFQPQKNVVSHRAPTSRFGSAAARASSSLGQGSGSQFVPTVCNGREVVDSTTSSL

| Structure (SMILES) | pIC50 [1] | Human mGlu3 GIRK IC50 (nM) [2] | pIC50 [2] | also measured |
| --- | --- | --- | --- | --- |
| Cn1cc(-c2cc(-c3ccc(F)cc3F)cc3c2CNC3=O)cn1 [Compound 19, 6-(2,4-difluorophenyl)-4-(1-methyl-1H-pyrazol-4-yl)isoindolin-1-one] | 6.74 | Inactive |  |  |
| CC(C)n1nccc1-c1cc(-c2ccc(F)cc2F)cc2c1CNC2=O [Compound 30, 6-(2,4-difluorophenyl)-4-(1-isopropyl-1H-pyrazol-5-yl)isoindolin-1-one] | 6.90 |  | < 5.00 |  |
| Cc1cc(-c2cc(-c3ccc(F)cc3F)cc3c2CNC3=O)cnn1 [Compound 13, 6-(2,4-difluorophenyl)-4-(6-methylpyridazin-4-yl)isoindolin-1-one] | 6.79 | Inactive |  |  |
| CC(C)n1nccc1-c1cc(C2=CCOCC2)cc2c1CNC2=O [Compound 86, 6-(3,6-dihydro-2H-pyran-4-yl)-4-(1-isopropyl-1H-pyrazol-5-yl)isoindolin-1-one] | 6.76 | Inactive |  |  |
| O=C1NCc2c1cc(-c1ccc(F)cc1F)cc2-c1ccc2nccn2c1 [Compound 38, 6-(2,4-difluorophenyl)-4-(imidazo[1,2-a]pyridin-6-yl)isoindolin-1-one] | 6.70 |  | 5.19 |  |
| O=C1NCc2c(CN3CCSCC3)cc(-c3ccc(F)cc3F)cc21 [Compound B1, 6-(2,4-difluorophenyl)-4-(thiomorpholinomethyl)isoindolin-1-one] | 6.74 |  | 5.34 |  |
| O=C1NCc2c1cc(-c1ccc(F)cc1F)cc2N1CCS(=O)(=O)CC1 [Compound A3, 6-(2,4-difluorophenyl)-4-(1,1-dioxidothiomorpholino)isoindolin-1-one] | 5.53 | Inactive |  |  |
| O=C1NCc2c1cc(-c1ccc(F)cc1F)cc2-c1cnco1 [Compound 6, 6-(2,4-difluorophenyl)-4-(oxazol-5-yl)isoindolin-1-one] | 7.18 | Inactive |  |  |
| O=C1NCc2c1cc(-c1ccc(F)cc1F)cc2N1CCOCC1 [Compound A4, 6-(2,4-difluorophenyl)-4-morpholinoisoindolin-1-one] | 6.42 |  | < 5.00 |  |
| N#CC1CCCN(c2cc(-c3ccc(F)cc3F)cc3c2CNC3=O)C1 (stereo not drawn) [Compound A10, 1-(6-(2,4-difluorophenyl)-1-oxoisoindolin-4-yl)piperidine-3-carbonitrile] | 6.41 |  | < 5.00 |  |
| CN1CCCC(c2cc(-c3ccc(F)cc3F)cc3c2CNC3=O)C1 (stereo not drawn) [Compound B3, 6-(2,4-difluorophenyl)-4-(1-methylpiperidin-3-yl)isoindolin-1-one] | 5.83 |  | < 5.00 |  |
| O=C1NCc2c1cc(-c1ccc(F)cc1F)cc2-c1ccc(C2CC2)nc1 [Compound 36, 4-(6-cyclopropylpyridin-3-yl)-6-(2,4-difluorophenyl)isoindolin-1-one] | 5.91 |  | < 5.00 |  |
| O=C1NCc2c1cc(-c1ccc(F)cc1F)cc2-c1cnn(C2CC2)c1 [Compound 18, 4-(1-cyclopropyl-1H-pyrazol-4-yl)-6-(2,4-difluorophenyl)isoindolin-1-one] | 6.54 | Inactive |  |  |
| O=C1NCc2c1cc(-c1ccc(F)cc1F)cc2-c1cccnc1N1CCCC1 [Compound 66, 6-(2,4-difluorophenyl)-4-(2-(pyrrolidin-1-yl)pyridin-3-yl)isoindolin-1-one] | 6.28 |  | < 5.00 |  |
| COC1CCCN(c2cc(-c3ccc(F)cc3F)cc3c2CNC3=O)C1 (stereo not drawn) [Compound A18, 6-(2,4-difluorophenyl)-4-(3-methoxypiperidin-1-yl)isoindolin-1-one] | 6.31 |  | 5.01 |  |
| O=C1NCc2c1cc(-c1ccc(F)cc1F)cc2-c1cnn(C2CCOC2)c1 (stereo not drawn) [Compound 63, 6-(2,4-difluorophenyl)-4-(1-(tetrahydrofuran-3-yl)-1H-pyrazol-4-yl)isoindolin-1-one] | 6.69 | Inactive |  |  |
| Cc1nc(F)ccc1-c1cc(-c2ccc(F)cc2F)cc2c1CNC2=O [Compound 72, 6-(2,4-difluorophenyl)-4-(6-fluoro-2-methylpyridin-3-yl)isoindolin-1-one] | 6.98 |  | < 5.00 |  |
| CC1(C)CCN(c2cc(-c3ccc(F)cc3F)cc3c2CNC3=O)CC1 [Compound A16, 6-(2,4-difluorophenyl)-4-(4,4-dimethylpiperidin-1-yl)isoindolin-1-one] | 5.40 |  | < 5.00 |  |
| Cc1ccc(-c2cc(-c3ccc(F)cc3F)cc3c2CNC3=O)cn1 [Compound 5, 6-(2,4-difluorophenyl)-4-(6-methylpyridin-3-yl)isoindolin-1-one] | 7.00 |  | < 5.00 |  |
| CC(C)n1nccc1-c1cc(C2=CCC3(CC2)OCCO3)cc2c1CNC2=O [Compound 87, 4-(1-isopropyl-1H-pyrazol-5-yl)-6-(1,4-dioxaspiro[4.5]dec-7-en-8-yl)isoindolin-1-one] | 5.42 | Inactive |  |  |
| CSc1ncc(-c2cc(-c3ccc(F)cc3F)cc3c2CNC3=O)cn1 [Compound 39, 6-(2,4-difluorophenyl)-4-(2-(methylthio)pyrimidin-5-yl)isoindolin-1-one] | 6.26 |  | 5.40 |  |
| CC(C)Oc1cc(-c2cc3c(c(-c4cnsc4)c2)CNC3=O)ccc1C#N [Compound 62, 2-isopropoxy-4-(7-(isothiazol-4-yl)-3-oxoisoindolin-5-yl)benzonitrile] |  |  | < 5.00 | Human mGlu2 GIRK IC50 (nM) [1]: Inactive |
| O=C1NCc2c(CN3CCOCC3)cc(-c3ccc(F)cc3F)cc21 [Compound B2, 6-(2,4-difluorophenyl)-4-(morpholinomethyl)isoindolin-1-one] | 6.74 |  | < 5.00 |  |
| CCCCCCCOC(=O)[C@@]1(F)[C@@H]2C[C@@H](OCc3ccc(Cl)c(Cl)c3)[C@@](N)(C(=O)O)[C@@H]21 [BCI-838] |  |  |  | Dutch APP transgene-associated learning and memory impairment ([3]; three months of treatment): reversed; anxiolytic effects ([3]; three months of treatment): anxiolytic effects; levels of monomeric and oAβ peptides in the hippocampus and cortex ([3]; three months of treatment, two AD mouse models): decreased; hippocampal progenitor cell proliferation ([3]; wild-type and Alzheimer's diseased mice, 3 months): stimulated |
| CC1(C#N)CCN(c2cc(-c3ccc(F)cc3F)cc3c2CNC3=O)C1 (stereo not drawn) [Compound A7, 1-(6-(2,4-difluorophenyl)-1-oxoisoindolin-4-yl)-3-methylpyrrolidine-3-carbonitrile] | 6.44 | Inactive |  |  |
| CC(C)(O)C1CCN(c2cc(-c3ccc(F)cc3F)cc3c2CNC3=O)C1 (stereo not drawn) [Compound A8, 6-(2,4-difluorophenyl)-4-(3-(2-hydroxypropan-2-yl)pyrrolidin-1-yl)isoindolin-1-one] | 6.19 | Inactive |  |  |
| Cn1nc(C(F)(F)F)cc1-c1cc(-c2ccc(F)cc2F)cc2c1CNC2=O [Compound 78, 6-(2,4-difluorophenyl)-4-(1-methyl-3-(trifluoromethyl)-1H-pyrazol-5-yl)isoindolin-1-one] | 6.69 | Inactive |  |  |
| O=C1NCc2c1cc(-c1ccc(F)cc1F)cc2-c1ccc(F)nc1F [Compound 73, 6-(2,4-difluorophenyl)-4-(2,6-difluoropyridin-3-yl)isoindolin-1-one] | 6.80 |  | < 5.00 |  |
| CC(C)Oc1ncccc1-c1cc(-c2ccc(F)cc2F)cc2c1CNC2=O [Compound 75, 6-(2,4-difluorophenyl)-4-(2-isopropoxypyridin-3-yl)isoindolin-1-one] | 6.06 |  | < 5.00 |  |
